Assay results as given in patent publication US9695155B2, “Herbicidal substituted pyrimidinyloxy benzene compounds” (E. I. DU PONT DE NEMOURS AND COMPANY, priority 2013, dated 2017).

Tests used:
giant foxtail [1] = assay: Test A postemergence; assay type: in vivo, Setaria faberii
How it was run: (§1)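 Scoring: eye-based comparison with untreated controls, 0 for no effect through 100 for complete control, at about day 10. Treatments: directed soil spray preemergence; foliar spray postemergence on 2–10 cm plants at the one- to two-leaf stage. Medium: loam soil with sand.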

Italian ryegrass [2] = assay: Test A postemergence; assay type: in vivo, Lolium multiflorum
How it was run: as §1

barnyardgrass [3] = assay: Test A preemergence; assay type: in vivo, Echinochloa crus-galli; settings: for Plant response rating, Barnyardgrass: 125 g ai/ha, 0 to 100 scale where 0 is no effect and 100 is complete control; for Barnyardgrass plant response rating: 500 g ai/ha, 0 to 100 scale, 0 no effect, 100 complete control, approx. 10 days
How it was run: as §1

Heteranthera limosa = assay: Test B flooded paddy test; assay type: in vivo; settings: Flood, 250 g ai/ha; 0 to 100 scale where 0 is no effect and 100 is complete control
How it was run: (§2)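 Post-emergence paddy-water application at the 2-leaf stage, with 3 cm flood kept for the whole test. Response was judged visually relative to controls after 13 to 15 greenhouse days, 0 indicating no effect and 100 complete control.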

barnyardgrass [4] = assay: Test B flooded paddy test; assay type: in vivo, Echinochloa crus-galli; settings: Flood, 250 g ai/ha; 0 to 100 scale where 0 is no effect and 100 is complete control
How it was run: as §2

pigweed [5] = assay: Test A postemergence; assay type: in vivo, Amaranthus retroflexus
How it was run: as §1

kochia [6] = assay: Test A preemergence; assay type: in vivo, Kochia scoparia; settings: for Plant response rating, Kochia: 125 g ai/ha, 0 to 100 scale where 0 is no effect and 100 is complete control; for Kochia plant response rating: 500 g ai/ha, 0 to 100 scale, 0 no effect, 100 complete control, approx. 10 days
How it was run: as §1

pigweed [7] = assay: Test A preemergence; assay type: in vivo, Amaranthus retroflexus; settings: for Plant response rating, Pigweed: 125 g ai/ha, 0 to 100 scale where 0 is no effect and 100 is complete control; for Pigweed plant response rating: 500 g ai/ha, 0 to 100 scale, 0 no effect, 100 complete control, approx. 10 days
How it was run: as §1

sedge, umbrella = assay: Test B flooded paddy test; assay type: in vivo, Cyperus difformis; settings: Flood, 250 g ai/ha; 0 to 100 scale where 0 is no effect and 100 is complete control
How it was run: as §2

kochia [8] = assay: Test A postemergence; assay type: in vivo, Kochia scoparia
Source text: (§3) Seeds of plant species selected from barnyardgrass (Echinochloa crus-galli), kochia (Kochia scoparia), ragweed (common ragweed, Ambrosia elatior), Italian ryegrass (Lolium multiflorum), large (Lg) crabgrass (Digitaria sanguinalis), giant foxtail (Setaria faberii), morningglory (Ipomoea spp.), pigweed (Amaranthus retroflexus), velvetleaf (Abutilon theophrasti), wheat (Triticum aestivum), and corn (Zea mays) were planted into a blend of loam soil and sand and treated preemergence with a directed soil spray using test chemicals formulated in a non-phytotoxic solvent mixture which included a surfactant.
(§4) At the same time, plants selected from these crop and weed species and also blackgrass (Alopecurus myosuroides), and galium (catchweed bedstraw, Galium aparine) were planted in pots containing the same blend of loam soil and sand and treated with postemergence applications of test chemicals formulated in the same manner. Plants ranged in height from 2 to 10 cm and were in the one- to two-leaf stage for the postemergence treatment. Treated plants and untreated controls were maintained in a greenhouse for approximately 10 days, after which time all treated plants were compared to untreated controls and visually evaluated for injury. Plant response ratings, summarized in Table A, are based on a 0 to 100 scale where 0 is no effect and 100 is complete control. A dash (-) response means no test result.

barnyardgrass [9] = assay: Test A postemergence; assay type: in vivo, Echinochloa crus-galli
How it was run: as §1

Italian ryegrass [10] = assay: Test A preemergence; assay type: in vivo, Lolium multiflorum; settings: for Plant response rating, Ryegrass, Italian: 125 g ai/ha, 0 to 100 scale where 0 is no effect and 100 is complete control; for Ryegrass, Italian plant response rating: 500 g ai/ha, 0 to 100 scale, 0 no effect, 100 complete control, approx. 10 days
How it was run: as §1

ragweed [11] = assay: Test A preemergence; assay type: in vivo, Ambrosia elatior; settings: for Plant response rating, Ragweed: 125 g ai/ha, 0 to 100 scale where 0 is no effect and 100 is complete control; for Ragweed plant response rating: 500 g ai/ha, 0 to 100 scale, 0 no effect, 100 complete control, approx. 10 days
Source text: as §3, §4

rice = assay: Test B flooded paddy test; assay type: in vivo, Oryza sativa; settings: Flood, 250 g ai/ha; 0 to 100 scale where 0 is no effect and 100 is complete control
How it was run: as §2

ragweed [12] = assay: Test A postemergence; assay type: in vivo, Ambrosia elatior
How it was run: as §1

galium = assay: Test A postemergence; assay type: in vivo, Galium aparine
Source text: as §3, §4

giant foxtail [13] = assay: Test A preemergence; assay type: in vivo, Setaria faberii; settings: for Plant response rating, Foxtail, Giant: 125 g ai/ha, 0 to 100 scale where 0 is no effect and 100 is complete control; for Foxtail, Giant plant response rating: 500 g ai/ha, 0 to 100 scale, 0 no effect, 100 complete control, approx. 10 days
How it was run: as §1

corn = assay: Test A postemergence; assay type: in vivo, Zea mays
How it was run: as §1

blackgrass = assay: Test A postemergence; assay type: in vivo, Alopecurus myosuroides
How it was run: as §1

wheat = assay: Test A postemergence; assay type: in vivo, Triticum aestivum
How it was run: as §1

[14] = 125 g ai/ha, 0 to 100 scale where 0 is no effect and 100 is complete control
[15] = 500 g ai/ha, 0 to 100 scale where 0 is no effect and 100 is complete control
[16] = 500 g ai/ha, 0 to 100 scale, 0 no effect, 100 complete control
[17] = 31 g ai/ha, 0 to 100 scale, 0 no effect, 100 complete control

| Compound | Plant response rating, Foxtail, Giant (giant foxtail [1]; [14]) | Plant response rating, Foxtail, Giant (giant foxtail [1]; [15]) | Plant response rating, Ryegrass, Italian (Italian ryegrass [2]; [14]) | Plant response rating, Ryegrass, Italian (Italian ryegrass [2]; [15]) | Plant response rating, Barnyardgrass (barnyardgrass [3]) | Barnyardgrass plant response rating (barnyardgrass [3]) | Plant response rating, Ducksalad (Heteranthera limosa) | Plant response rating, Barnyardgrass (barnyardgrass [4]) | Plant response rating, Kochia (kochia [6]) | Plant response rating, Pigweed (pigweed [7]) | Plant response rating, Sedge, Umbrella (sedge, umbrella) | Plant response rating, Kochia (kochia [8]; [14]) | Plant response rating, Barnyardgrass (barnyardgrass [9]; [14]) | Plant response rating, Ryegrass, Italian (Italian ryegrass [10]) | Plant response rating, Ragweed (ragweed [11]) | Plant response rating, Rice (rice) | Plant response rating, Galium (galium; [14]) | Plant response rating, Foxtail, Giant (giant foxtail [13]) | Plant response rating, Corn (corn; [14]) | Plant response rating, Blackgrass (blackgrass; [14]) | other results |
| --- | --- | --- | --- | --- | --- | --- | --- | --- | --- | --- | --- | --- | --- | --- | --- | --- | --- | --- | --- | --- | --- |
| CC(C)(C)c1cnn(-c2c(C#N)cccc2Oc2ncc(Cl)cn2)c1 [Compound 82] | 0 | 20 | 0 | 20 | 0 | 30 | 30 | 0 | 0 | 0 | 0 | 0 | 0 | 0 | 0 | 0 | 10 | 10 | 0 | 10 | Plant response rating, Pigweed (pigweed [5]; [14]): 10; Plant response rating, Pigweed (pigweed [5]; [15]): 40; Kochia plant response rating (kochia [6]): 0; Pigweed plant response rating (pigweed [7]): 60; Plant response rating, Kochia (kochia [8]; [15]): 10; Plant response rating, Barnyardgrass (barnyardgrass [9]; [16]): 20; Ryegrass, Italian plant response rating (Italian ryegrass [10]): 0; Ragweed plant response rating (ragweed [11]): 0; Plant response rating, Ragweed (ragweed [12]; [14]): 0; Plant response rating, Ragweed (ragweed [12]; [15]): 10; Plant response rating, Galium (galium; [15]): 20; Foxtail, Giant plant response rating (giant foxtail [13]): 70; Plant response rating, Corn (corn; [16]): 10; Plant response rating, Blackgrass (blackgrass; [16]): 50; Plant response rating, Wheat (wheat; [14]): 0; Plant response rating, Wheat (wheat; [15]): 30 |
| N#Cc1cnn(-c2c(C#N)cccc2Oc2ncc(I)cn2)c1 [Compound 91] | 10 | 10 | 0 | 0 | 0 | 0 | 0 | 0 | 30 | 70 | 0 | 10 | 0 | 0 | 0 | 0 | 40 | 10 | 0 | 0 | Plant response rating, Pigweed (pigweed [5]; [14]): 10; Plant response rating, Pigweed (pigweed [5]; [15]): 50; Kochia plant response rating (kochia [6]): 90; Pigweed plant response rating (pigweed [7]): 90; Plant response rating, Kochia (kochia [8]; [15]): 30; Plant response rating, Barnyardgrass (barnyardgrass [9]; [15]): 10; Ryegrass, Italian plant response rating (Italian ryegrass [10]): 30; Ragweed plant response rating (ragweed [11]): 0; Plant response rating, Ragweed (ragweed [12]; [14]): 10; Plant response rating, Ragweed (ragweed [12]; [15]): 30; Plant response rating, Galium (galium; [15]): 70; Foxtail, Giant plant response rating (giant foxtail [13]): 30; Plant response rating, Corn (corn; [15]): 0; Plant response rating, Blackgrass (blackgrass; [15]): 30; Plant response rating, Wheat (wheat; [14]): 0; Plant response rating, Wheat (wheat; [15]): 10 |
| N#Cc1cccc(Oc2ncc(Cl)cn2)c1-n1cc(OCC(F)F)cn1 [Compound 99] | 100 |  |  |  | 90 |  | 0 | 0 | 100 | 100 | 0 | 100 | 100 | 30 | 90 | 0 | 100 | 100 | 90 | 90 | Plant response rating, Foxtail, Giant (giant foxtail [1]; [17]): 90; Plant response rating, Ryegrass, Italian (Italian ryegrass [2]; [17]): 20; Barnyardgrass plant response rating (0 to 100 scale) (barnyardgrass [3]; 31 g ai/ha): 80; Plant response rating, Pigweed (pigweed [5]; [17]): 100; Kochia plant response rating (0 to 100 scale) (kochia [6]; 31 g ai/ha): 100; Pigweed plant response rating (0 to 100 scale) (pigweed [7]; 31 g ai/ha): 100; Plant response rating, Kochia (kochia [8]; [17]): 100; Plant response rating, Barnyardgrass (barnyardgrass [9]; [17]): 100; Ryegrass, Italian plant response rating (0 to 100 scale) (Italian ryegrass [10]; 31 g ai/ha): 0; Ragweed plant response rating (0 to 100 scale) (ragweed [11]; 31 g ai/ha): 70; Plant response rating, Ragweed (ragweed [12]; [17]): 30; Plant response rating, Galium (galium; [17]): 90; Foxtail, Giant plant response rating (0 to 100 scale) (giant foxtail [13]; 31 g ai/ha): 100; Plant response rating, Corn (corn; [17]): 20; Plant response rating, Blackgrass (blackgrass; [17]): 50; Plant response rating, Wheat (wheat; [17]): 50 |
